The numbers were not newly measured in US20170172144A1, “ECTOPARASITE FORMULATION” (priority 2014, published 2017), which cites them from elsewhere.

Counter-ions that a name gives are not always drawn.

For this series the following is noted: qualitative statement.
For `c1ccc([C@H]2CN3CCSC3=N2)cc1` [levamisole hydrochloride, Levamisole hydrochloride], the aqueous solubility entry is on record as “soluble”.

As for `COC(=O)Nc1nc2ccc([S+]([O-])c3ccccc3)cc2[nH]1` (stereo not drawn) [oxfendazole, Oxfendazole], the aqueous solubility result is “relatively low solubility”.

Turning to Abamectin, the aqueous solubility result is reported as “relatively low solubility”.
